# ChEMBL document CHEMBL2034929, “A specific molecular beacon probe for the detection of human prostate cancer cells” (Bioorg Med Chem Lett, 2012)
# Tests used:
# [1] = Drug metabolism in 0.10 M tris-maleate buffer at pH 8 assessed as formation of N-[4-[(1E)-2-[4-(dimethylamino)phenyl]diazenyl]benzoyl]-glycine by mass spectrometry in presence of porcine liver carboxylesterase; format: physicochemical; settings: pig
# [2] = Drug metabolism in human RWPE1 cells at 10 uM after 30 mins by fluorescence microscopy; format: ADME, cell-based; settings: rwpe-1, 0.5 h
# [3] = test system: LNCaP; assay: Drug metabolism in human LNCAP cell lysates assessed as formation of 2-[3-[[(3'6'-Dihydroxy-3-oxospiro[isobenzofuran-1(3H), 9'-[9H]xanthen]-6-yl)carbonyl]amino]-1-propyn-1-yl]-benzenemethanol; format: ADME, cell-based, Lysate
# [4] = Drug metabolism in human RWPE1 cells at 10 uM after 26 hrs by UV-VIS spectrophotometry; format: ADME, cell-based, RWPE-1; settings: read-out: Drug metabolism
# [5] = test system: LNCaP; assay: Drug metabolism in human LNCAP cell lysates assessed as formation of N-[4-[(1E)-2-[4-(dimethylamino)phenyl]diazenyl]benzoyl]-glycine; format: ADME, cell-based, Lysate
# [6] = Drug metabolism in 0.10 M tris-maleate buffer at pH 8 assessed as increase in fluorescence at 10 uM after 5 hrs by UV-VIS spectrophotometry in presence of porcine liver carboxylesterase relative to control; format: physicochemical; settings: pig, pH 8, 5 h
# [7] = Drug metabolism in 0.10 M tris-maleate buffer at pH 8 assessed as formation of 2-[3-[[(3'6'-Dihydroxy-3-oxospiro[isobenzofuran-1(3H), 9'-[9H]xanthen]-6-yl)carbonyl]amino]-1-propyn-1-yl]-benzenemethanol by mass spectrometry in presence of porcine liver carboxylesterase; format: physicochemical; settings: pig
# [8] = test system: LNCaP; assay: Drug metabolism in human LNCAP cell lysates at 10 uM after 26 hrs by UV-VIS spectrophotometry relative to human RWPE1 cells; format: ADME, cell-based, Lysate
# [9] = test system: LNCaP; assay: Drug metabolism in human LNCAP cell lysates at 10 uM after 26 hrs by fluorescence analysis relative to untreated human RWPE1 cells; format: ADME, cell-based, Lysate
# [10] = Drug metabolism in human LNCAP cells at 10 uM after 26 hrs by UV-VIS spectrophotometry; format: ADME, cell-based; settings: read-out: Drug metabolism
# [11] = test system: LNCaP; assay: Drug metabolism in human LNCAP cell lysates at 10 uM after 26 hrs by fluorescence analysis relative to human RWPE1 cells; format: ADME, cell-based, Lysate
# [12] = test system: LNCaP; assay: Drug metabolism in human LNCAP cell lysates at 10 uM after 10 days by fluorescence analysis; format: ADME, cell-based, Lysate; settings: 240 h
# [13] = test system: LNCaP; assay: Drug metabolism in human LNCAP cells at 10 uM after 30 mins by fluorescence microscopy; format: ADME, cell-based; settings: 0.5 h
compound,measurement,setting,value
CN(C)c1ccc(/N=N/c2ccc(C(=O)NCC(=O)OCc3ccccc3C#CCNC(=O)c3ccc4c(c3)C3(OC4=O)c4ccc(O)cc4Oc4cc(O)ccc43)cc2)cc1,Drug metabolism,[1],Active
same,Drug metabolism,[2],Not Active
same,Drug metabolism,[3],Active
same,"metabolised at 26 h, 10 µM",[4],10%
same,Drug metabolism,[5],Active
same,fold change (FC),[6],23
same,Drug metabolism,[7],Active
same,fold change (FC),[8],2.9
same,fold change (FC),[9],30.8
same,"metabolised at 26 h, 10 µM",[10],29%
same,fold change (FC),[11],3.8
same,Drug metabolism,[12],Active
same,Drug metabolism,[13],Active
